The values below come from patent US20260285875A1, “INHIBITORS OF PARG” (858 Therapeutics, Inc., priority 2023, published 2026).

One assay concerns the target T1, cellular PARG (Homo sapiens, UniProt Q86W56).
T1 construct: endogenous in cells; host or cells: HeLa
The assay is described as follows: Nuclear PAR accumulation assay (immunofluorescence high-content imaging, MMS-treated HeLa cells). In kind it is cell-based. Particulars: 1 hour compound then MMS 50 μg/mL for an additional hour. The essentials: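 HeLa cells pretreated with compound for 1 h at 37° C, then given 50 μg/mL MMS for another hour. After methanol fixation, PAR was immunostained with DAPI nuclear counterstain; per-nucleus intensity and percent PAR-positive cells were imaged at 20× (≥1,000 cells/well). IC50 from four-parameter logistic fit.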

The subject of a further assay is sensitive cells. The settings on record: S-phase dependent; cited from earlier work.

Where only a bound is given, the exact number is not on record here.

T1 sequence (Q86W56 whole entry): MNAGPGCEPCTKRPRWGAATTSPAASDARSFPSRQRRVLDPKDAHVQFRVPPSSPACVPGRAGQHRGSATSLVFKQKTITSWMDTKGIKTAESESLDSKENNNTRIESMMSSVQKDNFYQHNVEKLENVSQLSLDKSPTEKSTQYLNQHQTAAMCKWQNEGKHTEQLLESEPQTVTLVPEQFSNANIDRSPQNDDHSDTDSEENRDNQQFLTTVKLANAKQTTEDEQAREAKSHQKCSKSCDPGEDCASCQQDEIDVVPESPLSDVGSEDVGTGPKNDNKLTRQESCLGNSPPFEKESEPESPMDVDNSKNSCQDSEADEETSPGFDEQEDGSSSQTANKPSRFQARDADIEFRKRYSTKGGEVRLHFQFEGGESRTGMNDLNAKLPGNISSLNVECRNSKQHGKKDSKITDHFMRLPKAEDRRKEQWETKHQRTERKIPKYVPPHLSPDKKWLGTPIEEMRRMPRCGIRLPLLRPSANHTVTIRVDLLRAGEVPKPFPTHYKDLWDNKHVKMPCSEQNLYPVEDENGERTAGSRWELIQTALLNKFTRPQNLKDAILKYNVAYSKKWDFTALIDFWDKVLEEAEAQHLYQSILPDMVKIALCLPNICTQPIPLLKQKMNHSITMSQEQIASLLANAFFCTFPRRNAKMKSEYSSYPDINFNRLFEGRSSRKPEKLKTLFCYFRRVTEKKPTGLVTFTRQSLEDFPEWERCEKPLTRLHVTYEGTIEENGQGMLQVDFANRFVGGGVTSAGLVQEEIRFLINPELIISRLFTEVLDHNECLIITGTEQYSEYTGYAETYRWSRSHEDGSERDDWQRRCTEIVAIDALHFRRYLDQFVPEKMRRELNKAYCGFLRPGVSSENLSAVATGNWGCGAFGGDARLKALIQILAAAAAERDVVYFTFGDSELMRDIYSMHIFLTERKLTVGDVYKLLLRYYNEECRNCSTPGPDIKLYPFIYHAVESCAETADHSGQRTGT

For the molecule `[2H]C([2H])(c1cnn(C)c1)N1C(=O)c2cc(S(=O)(=O)NC3(C)CC3)ccc2N2C1=NC[C@H]2C#CC1=CCNCC1` [Example 281, (R)-4-((1-methyl-1H-pyrazol-4-yl)methyl-d2)-N-(1-methylcyclopropyl)-5-oxo-1-((1,2,3,6-tetrahydropyridin-4-yl)ethynyl)-1,2,4,5-tetrahydroimidazo[1,2-a]quinazoline-7-sulfonamide], the IC50 at cellular PARG is < 100 nM. Still for that read-out and setting: to `[2H]C([2H])(c1cnn(C)c1)N1C(=O)c2cc(S(=O)(=O)NC3(C)CC3)ccc2N2C1=NC[C@H]2C#CC1=CCOCC1` [Example 282, (R)-1-((3,6-dihydro-2H-pyran-4-yl)ethynyl)-4-((1-methyl-1H-pyrazol-4-yl)methyl-d2)-N-(1-methylcyclopropyl)-5-oxo-1,2,4,5-tetrahydroimidazo[1,2-a]quinazoline-7-sulfonamide] belongs < 100 nM; to `[2H]C([2H])(c1cnn(C)c1)N1C(=O)c2cc(S(=O)(=O)NC3(C)CC3)ccc2N2C1=N[C@@H]1C[C@@H](N)C[C@@H]12` [Example 283, (7aR,9R,10aS)-9-amino-6-((1-methyl-1H-pyrazol-4-yl)methyl-d2)-N-(1-methylcyclopropyl)-5-oxo-6,7a,8,9,10,10a-hexahydro-5H-cyclopenta[4,5]imidazo[1,2-a]quinazoline-3-sulfonamide], 1000 to 10000 nM; to `[2H]C([2H])(c1cnn(C)c1)N1C(=O)c2cc(S(=O)(=O)NC3(C)CC3)ccc2N2C1=N[C@H]1C[C@H](N(C)C)C[C@H]12` [Example 284, (7aS,9S,10aR)-9-(dimethylamino)-6-((1-methyl-1H-pyrazol-4-yl)methyl-d2)-N-(1-methylcyclopropyl)-5-oxo-6,7a,8,9,10,10a-hexahydro-5H-cyclopenta[4,5]imidazo[1,2-a]quinazoline-3-sulfonamide], 1000 to 10000 nM. In turn, `[2H]C([2H])(c1cnn(C)c1)N1C(=O)c2cc(S(=O)(=O)NC3(C)CC3)ccc2N2C1=N[C@@H]1C[C@@H](N(C)C)C[C@@H]12` [Example 285, (7aR,9R,10aS)-9-(dimethylamino)-6-((1-methyl-1H-pyrazol-4-yl)methyl-d2)-N-(1-methylcyclopropyl)-5-oxo-6,7a,8,9,10,10a-hexahydro-5H-cyclopenta[4,5]imidazo[1,2-a]quinazoline-3-sulfonamide] registered an IC50 against cellular PARG of 100 to 1000 nM. Same read-out and setting: to `[2H]C([2H])(c1cnn(C)c1)N1C(=O)c2cc(S(=O)(=O)NC3(C)CC3)c(NCc3ccc(OC)nc3)cc2N2C1=N[C@H]1CCC[C@H]12` [Example 286, (7aS,10aR)-2-(((6-methoxypyridin-3-yl)methyl)amino)-6-((1-methyl-1H-pyrazol-4-yl)methyl-d2)-N-(1-methylcyclopropyl)-5-oxo-6,7a,8,9,10,10a-hexahydro-5H-cyclopenta[4,5]imidazo[1,2-a]quinazoline-3-sulfonamide] belongs < 100 nM. The same measure, in the same setting: as for `[2H]C([2H])(c1cnn(C)c1)N1C(=O)c2cc(S(=O)(=O)NC3(C)CC3)c(NCC#Cc3cncnc3)cc2N2C1=N[C@H]1CCC[C@H]12` [Example 287, (7aS,10aR)-6-((1-methyl-1H-pyrazol-4-yl)methyl-d2)-N-(1-methylcyclopropyl)-5-oxo-2-((3-(pyrimidin-5-yl)prop-2-yn-1-yl)amino)-6,7a,8,9,10,10a-hexahydro-5H-cyclopenta[4,5]imidazo[1,2-a]quinazoline-3-sulfonamide], the figure is < 100 nM; as for `Cn1ncc(C#C[C@@H]2CN=C3N(Cc4cnn5c4CNCC5)C(=O)c4cc(S(=O)(=O)NC5(C)CC5)ccc4N32)n1` [Example 288, (R)-1-((2-methyl-2H-1,2,3-triazol-4-yl)ethynyl)-N-(1-methylcyclopropyl)-5-oxo-4-((4,5,6,7-tetrahydropyrazolo[1,5-a]pyrazin-3-yl)methyl)-1,2,4,5-tetrahydroimidazo[1,2-a]quinazoline-7-sulfonamide], < 100 nM; as for `[2H]C([2H])(c1cnn(C)c1)N1C(=O)c2cc(S(=O)(=O)NC3(C)CC3)c(F)cc2N2C1=NC[C@H]2C#C` [Example 289, (R)-1-ethynyl-8-fluoro-4-((1-methyl-1H-pyrazol-4-yl)methyl-d2)-N-(1-methylcyclopropyl)-5-oxo-1,2,4,5-tetrahydroimidazo[1,2-a]quinazoline-7-sulfonamide], < 100 nM. On the same count and under the same terms, to `CC1(NS(=O)(=O)c2ccc3c(c2)C(=O)N(Cc2cnn4c2CNCC4)C2=N[C@H]4CCC[C@H]4N23)CC1` [Example 290, (7aS,10aR)-N-(1-methylcyclopropyl)-5-oxo-6-((4,5,6,7-tetrahydropyrazolo[1,5-a]pyrazin-3-yl)methyl)-6,7a,8,9,10,10a-hexahydro-5H-cyclopenta[4,5]imidazo[1,2-a]quinazoline-3-sulfonamide] belongs 100 to 1000 nM; to `CC(=O)N1CCn2ncc(CN3C(=O)c4cc(S(=O)(=O)NC5(C)CC5)ccc4N4C3=N[C@H]3CCC[C@H]34)c2C1` [Example 291, (7aS,10aR)-6-((5-acetyl-4,5,6,7-tetrahydropyrazolo[1,5-a]pyrazin-3-yl)methyl)-N-(1-methylcyclopropyl)-5-oxo-6,7a,8,9,10,10a-hexahydro-5H-cyclopenta[4,5]imidazo[1,2-a]quinazoline-3-sulfonamide], 100 to 1000 nM. On cellular PARG, `CC(=O)N1CCN(c2cc(S(=O)(=O)NC3(C)CC3)cc3c2N2C(=NC[C@H]2C)N(Cc2cnn(C)c2)C3=O)CC1` [Example 292, (R)-9-(4-acetylpiperazin-1-yl)-1-methyl-4-((1-methyl-1H-pyrazol-4-yl)methyl)-N-(1-methylcyclopropyl)-5-oxo-1,2,4,5-tetrahydroimidazo[1,2-a]quinazoline-7-sulfonamide] had an IC50 of 100 to 1000 nM. On the same count and under the same terms, as for `COC(=O)[C@@H]1N=C2N(Cc3cnn(C)c3)C(=O)c3cc(S(=O)(=O)NC4(C)CC4)ccc3N2[C@@H]1C` [Example 293, methyl (1R,2R)-1-methyl-4-((1-methyl-1H-pyrazol-4-yl)methyl)-7-(N-(1-methylcyclopropyl)sulfamoyl)-5-oxo-1,2,4,5-tetrahydroimidazo[1,2-a]quinazoline-2-carboxylate], the figure is 100 to 1000 nM; as for `C[C@@H]1[C@H](CO)N=C2N(Cc3cnn(C)c3)C(=O)c3cc(S(=O)(=O)NC4(C)CC4)ccc3N21` [Example 294, (1R,2R)-2-(hydroxymethyl)-1-methyl-4-((1-methyl-1H-pyrazol-4-yl)methyl)-N-(1-methylcyclopropyl)-5-oxo-1,2,4,5-tetrahydroimidazo[1,2-a]quinazoline-7-sulfonamide], < 100 nM; as for `CC(=O)NC[C@@H]1N=C2N(Cc3cnn(C)c3)C(=O)c3cc(S(=O)(=O)NC4(C)CC4)ccc3N2[C@@H]1C` [Example 295, N-(((1R,2S)-1-methyl-4-((1-methyl-1H-pyrazol-4-yl)methyl)-7-(N-(1-methylcyclopropyl)sulfamoyl)-5-oxo-1,2,4,5-tetrahydroimidazo[1,2-a]quinazolin-2-yl)methyl)acetamide], 100 to 1000 nM. The same measure, in the same setting: to `C#C[C@@H]1CN=C2N(Cc3cnn4c3CNCC4)C(=O)c3cc(S(=O)(=O)NC4(C)CC4)cc(Cl)c3N21` [Example 297, (R)-9-chloro-1-ethynyl-N-(1-methylcyclopropyl)-5-oxo-4-((4,5,6,7-tetrahydropyrazolo[1,5-a]pyrazin-3-yl)methyl)-1,2,4,5-tetrahydroimidazo[1,2-a]quinazoline-7-sulfonamide] belongs < 100 nM. Consider PDD00017273, for which the “accumulation of nuclear RPA protein and induction of pan-nuclear QH2AX expression” value in the assay on sensitive cells was “S-phase dependent accumulation of nuclear RPA protein and induction of pan-nuclear QH2AX expression”.

What is called IC50 is the concentration needed to halve the response being measured. A higher IC50 goes with weaker potency in that assay.
